The test concerns the target Neuropeptide Y receptor type 2 (Homo sapiens) (UniProt P49146). Briefly: NPY-Y2 receptor antagonist potency, dose response, cell-based (AID 1272). Conditions: NPY-Y2 expressing cells, antagonist inhibition read-out.

Activity calls are given as the source filed them. How the calls were made is not given here. A value given as a limit tells only on which side of the number the result lay.

Chain of Neuropeptide Y receptor type 2 (Homo sapiens) (P49146 whole entry, looked up): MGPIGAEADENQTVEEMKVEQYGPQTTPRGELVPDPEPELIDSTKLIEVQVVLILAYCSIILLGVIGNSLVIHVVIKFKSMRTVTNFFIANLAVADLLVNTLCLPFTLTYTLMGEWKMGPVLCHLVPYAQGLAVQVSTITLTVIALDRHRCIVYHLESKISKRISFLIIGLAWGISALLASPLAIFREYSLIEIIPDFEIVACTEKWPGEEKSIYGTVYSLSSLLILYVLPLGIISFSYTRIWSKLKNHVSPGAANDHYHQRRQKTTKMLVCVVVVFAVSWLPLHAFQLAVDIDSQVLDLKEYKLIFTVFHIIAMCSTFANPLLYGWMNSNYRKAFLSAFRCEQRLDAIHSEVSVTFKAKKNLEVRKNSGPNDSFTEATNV

Turning to `Cc1cccc(CSCCNC(=O)COc2ccc(Cl)cc2)c1`, the IC50 (as a rule, the concentration that inhibits the measured activity by half) is < 35 µM (inactive).

Values taken from PubChem BioAssay AID1272 (The Scripps Research Institute Molecular Screening Center, 2008).
